In assay [1] the target is T1, DGKa (Homo sapiens (Human), UniProt P23743).
Procedure: (§1) The DGKa and DGKz kinase assays were performed using Promega ADP-Glo kit (Promega, Cat #V9102). One microliter test compound was added to a 384-well plate. Reactions were performed in a 5 uL volume by adding 2 uL mixture of DGK enzyme and ATP in assay buffer (50 mM MOPS pH 7.5, 100 mM NaCl, 10 mM MgCl2, 1 mM CaCl2, 0.0025% BSA, and 1 mM DTT). […] The enzyme solution was incubated with test compound at 25 ? for 20 min. […] The reaction was initiated by the addition of 2 uL of substrate solution (7 uM 1.2-dioleoyl-sn-glycerol, 5 mM octyl-b-D-glucopyranoside) in the 5 uL assay volume. The resulting mixture was incubated at 25° C. for 40 minutes. Next, 5 uL of ADP-Glo-reagent was added to the plate and incubated for 40 minutes. Then 10 uL of kinase detection reagent was added and incubated for 30 minutes. Luminescence was recorded using an Tecan SPARK microplate reader. 1% DMSO vehicle was used as control and no enzyme well was used as blank well.
The target of assay [2] is DGKz (Homo sapiens (Human), UniProt Q13574). As to the kind of experiment: DGK ADP-Glo kinase assay (DGKz). The class given is biochemical. Particulars: 5 nM DGKz, 15 uM ATP. As to the method:
Luminescence was recorded using an Tecan SPARK microplate reader.
(In general: ADP-Glo turns the ADP formed in a reaction into a luminescent signal.)

The test system of assay [3] is PBMC. The assay can be described thus: Human PBMC IL-2 assay. The class given is cell-based. The note with it: anti-CD3/CD28 stimulation overnight, IL-2 level. An outline of the steps:
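Healthy-donor frozen PBMC were thawed, rested 4 h at 37 °C and plated at ~200,000 cells/well. Cells were preincubated 60 min at 37 °C with compound solution (10 uM to 0.6 nM, 8 points, 4-fold, as added), then stimulated overnight with anti-CD3/CD28. Supernatant IL-2 was quantified by immunoassay kit and plotted against log compound concentration.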

The target of assay [4] is T1, DGKa. The assay can be described thus: biochemical.
Procedure: as §1
The subject of assay [5] is Jurkat cells. The assay can be described thus: Jurkat IL-2 assay. It counts as cell-based. The note with it: Homo sapiens, anti-CD3/CD28 stimulation overnight, IL-2 level. Summed up: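 Cells in RPMI-1640 with 10% FBS received compound solution (5 uM to 2.3 nM, 8 points, 3-fold dilution) for 60 minutes at 37° C. They were then stimulated overnight at 37° C. with anti-CD3/CD28 antibody. IL-2 in the supernatant was quantified by immunoassay kit and plotted against log compound concentration.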

Like-named read-outs stand apart in the source and are kept apart here.

T1 sequence (P23743 whole entry): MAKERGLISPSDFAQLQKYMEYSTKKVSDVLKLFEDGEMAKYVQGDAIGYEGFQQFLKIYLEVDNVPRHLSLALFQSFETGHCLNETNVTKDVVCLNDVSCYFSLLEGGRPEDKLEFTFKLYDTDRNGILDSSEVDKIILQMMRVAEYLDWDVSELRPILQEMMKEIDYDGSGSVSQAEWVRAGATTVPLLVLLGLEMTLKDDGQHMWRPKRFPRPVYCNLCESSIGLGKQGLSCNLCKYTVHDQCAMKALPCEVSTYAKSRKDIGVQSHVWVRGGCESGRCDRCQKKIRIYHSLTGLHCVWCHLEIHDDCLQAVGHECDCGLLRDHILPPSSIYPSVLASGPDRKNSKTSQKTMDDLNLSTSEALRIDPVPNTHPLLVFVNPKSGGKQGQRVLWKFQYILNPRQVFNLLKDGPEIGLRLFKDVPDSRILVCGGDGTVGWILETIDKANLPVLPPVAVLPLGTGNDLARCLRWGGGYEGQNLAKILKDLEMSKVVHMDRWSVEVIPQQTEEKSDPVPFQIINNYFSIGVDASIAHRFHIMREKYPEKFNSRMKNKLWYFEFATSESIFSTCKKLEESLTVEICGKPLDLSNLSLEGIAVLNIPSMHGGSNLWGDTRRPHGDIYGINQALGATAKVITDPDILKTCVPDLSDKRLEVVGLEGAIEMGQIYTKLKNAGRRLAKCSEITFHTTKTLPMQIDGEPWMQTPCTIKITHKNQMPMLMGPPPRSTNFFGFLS
Sequence of DGKz (Q13574 whole entry): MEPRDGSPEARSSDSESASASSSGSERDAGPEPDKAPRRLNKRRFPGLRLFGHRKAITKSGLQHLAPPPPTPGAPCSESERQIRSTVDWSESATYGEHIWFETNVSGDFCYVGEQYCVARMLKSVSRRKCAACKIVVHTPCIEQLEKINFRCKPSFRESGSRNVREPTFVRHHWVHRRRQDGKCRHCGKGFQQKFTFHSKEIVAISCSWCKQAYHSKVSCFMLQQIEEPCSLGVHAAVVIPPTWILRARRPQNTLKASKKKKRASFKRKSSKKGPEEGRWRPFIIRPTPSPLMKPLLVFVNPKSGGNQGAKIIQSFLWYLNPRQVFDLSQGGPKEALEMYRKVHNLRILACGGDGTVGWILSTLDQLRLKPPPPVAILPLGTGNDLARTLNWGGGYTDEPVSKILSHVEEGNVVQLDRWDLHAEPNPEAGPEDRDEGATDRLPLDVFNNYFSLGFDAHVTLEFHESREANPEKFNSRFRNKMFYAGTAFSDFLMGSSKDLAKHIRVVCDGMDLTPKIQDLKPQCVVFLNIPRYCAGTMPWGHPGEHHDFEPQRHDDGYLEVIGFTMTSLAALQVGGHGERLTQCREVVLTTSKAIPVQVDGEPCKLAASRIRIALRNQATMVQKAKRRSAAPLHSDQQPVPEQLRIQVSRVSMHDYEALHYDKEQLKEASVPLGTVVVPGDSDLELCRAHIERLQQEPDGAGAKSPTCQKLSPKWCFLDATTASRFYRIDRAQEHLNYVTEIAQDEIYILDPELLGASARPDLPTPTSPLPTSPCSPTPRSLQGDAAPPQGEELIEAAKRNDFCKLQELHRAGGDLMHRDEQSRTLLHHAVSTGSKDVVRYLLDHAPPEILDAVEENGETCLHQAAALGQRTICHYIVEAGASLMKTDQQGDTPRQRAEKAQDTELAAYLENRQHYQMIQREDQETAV

`N#Cc1ccc2c(n1)c(N1CCC3(CC1)CC(c1ccc(SC(F)(F)F)cc1)=NO3)nc1nncn12` [Compound 54]: the results for the 50% inhibitory concentration (IC50) in assay [1] and in assay [2] were 29 nM and 248 nM, respectively.
Taken in the same sequence, the figures for `CC[C@H]1CN(C(c2ccc(S(F)(F)(F)(F)F)cc2)c2nc(C3CC3)no2)[C@H](CC)CN1c1nc(=O)n(C)c2ccc(C#N)nc12` (some centres unmarked) [Compound 64] were 10 nM and 55 nM.
On the same counts, the results for `CC[C@H]1CN([C@H]2CCCCc3cc(C(F)(F)F)ccc32)[C@H](CC)CN1c1nc2nncn2c2ccc(C#N)nc12` [Compound 113] are 44 nM and 161 nM.
On to `Cn1c(=O)c(C(N)=O)c(N2CCC3(CCN(c4ccc(OC(F)(F)F)cc4)C3)CC2)c2nc(C#N)ccc21` [Compound 6], for which the IC50 in assay [1] was 212 nM; in assay [2], 775 nM. Besides, it took 1800 nM to reach a half-maximal effect in assay [3] (EC50).
For `CC[C@H]1C[C@@H](Oc2ccc(OC(F)(F)F)cc2)CCN1c1nc(=O)n(C)c2ccc(C#N)nc12` [Compound 17], the results for the 50% inhibitory concentration (IC50) in assay [4] and in assay [2] were 53 nM and 212 nM, respectively. Besides, the midpoint of the response in assay [3], the EC50, lay at 401 nM.
Turning to `Cn1c(=O)nc(N2CCC3(CC2)CC(c2cccc(C(F)(F)F)c2)=NO3)c2nc(C#N)ccc21` [Compound 47], the IC50 in assay [1] amounted to 12 nM; in assay [2], 36 nM.
On the same counts, the results for `CCC(c1ccc(C23CC(C2)C3)nc1)N1C[C@H](CC)N(c2nc3nncn3c3ccc(C#N)nc23)C[C@H]1CC` (some centres unmarked) [Compound 104] are 18 nM and 41 nM.
In assay [5], `CC[C@H]1CN([C@@H]2CCCCc3cc(C(F)(F)F)ccc32)[C@H](CC)CN1c1nc(=O)n(C)c2ccc(C#N)nc12` [Compound 45] came in with a 50% effective concentration (EC50) of 858 nM. Also, the half-maximal inhibitory concentration (IC50) came out at 245 nM in assay [4] and 45 nM in assay [2].
Take `CN(c1cccc(C#CC2CC2)c1)c1nc(=O)n(C)c2ccc(C#N)nc12` [Compound 46]: the 50% inhibitory concentration (IC50) came to 5 nM in assay [1] and 324 nM in assay [2].
On the same counts, the results for `Cc1ccc2oc(C3CCN(c4nc(=O)n(C)c5ccc6nncn6c45)CC3)nc2c1` [Compound 22] are 5 nM and greater than 10000 nM.
Taken in the same sequence, the figures for `CC[C@H]1CN([C@@H]2CCCCc3cc(C(F)(F)F)ccc32)[C@H](CC)CN1c1nc2nncn2c2ccc(C#N)nc12` [Compound 114] were 30 nM and 4 nM.
Taken in the same sequence, the figures for `CC[C@H]1CN([C@@H](CC)c2ccc(OC)cc2F)[C@H](CC)CN1c1nc2nncn2c2ccc(C#N)nc12` (stereo in doubt) [Compound 115] were 3 nM and 8 nM.
In the case of `CC[C@@H]1CN(c2nc(=O)n(C)c3ccc(C#N)nc23)[C@@H](C)CN1[C@@H](c1ccc(F)cc1)c1ccc(SC(F)(F)F)cn1` [Compound 72], the values for the IC50 in assay [1] and in assay [2] were 13 nM and 33 nM, respectively.
On to `CC[C@@H]1CN2c3c(c(=O)n(C)c4ccc(C#N)nc34)OC[C@H]2CN1[C@H](CC)c1ccc(C(F)(F)F)cc1` [Compound 108], for which the IC50 in assay [1] was 26 nM; in assay [2] it was 242 nM.
With `CC[C@H]1CN([C@H](CC)c2ccc(OC)cc2F)[C@H](CC)CN1c1nc2nncn2c2ccc(C#N)nc12` (stereo in doubt) [Compound 116], the results for the 50% inhibitory concentration (IC50) in assay [1] and in assay [2] were 14 nM and 347 nM, respectively.
With `CC[C@H]1CN([C@@H](c2ccc(S(F)(F)(F)(F)F)cc2)c2nc(C3CC3)cs2)[C@H](CC)CN1c1nc(=O)n(C)c2ccc(C#N)nc12` [Compound 99], the 50% inhibitory concentration (IC50) is 4 nM in assay [1] and 22 nM in assay [2].
Regarding `Cn1c(=O)nc(N2CCC(Oc3ccc(OC(F)(F)F)cc3)CC2)c2nc(C#N)ccc21` [Compound 5], the half-maximal inhibitory concentration (IC50) in assay [1] is 427 nM; in assay [2], 126 nM. In assay [3], this compound returned an EC50 of 728 nM.
As to `Cn1c(=O)c(C(N)=O)c(N2CCC3(CN(c4ccc(OC(F)(F)F)cc4)C3)C2)c2nc(C#N)ccc21` [Compound 15], the values for the IC50 in assay [1] and in assay [2] were 19 nM and greater than 10000 nM, respectively.
Consider `CC[C@H]1CN([C@@H](CC)c2ccc(C(F)(F)F)cc2)[C@H](CC)CN1c1nc2nccn2c2ccc(C#N)nc12` [Compound 109], for which the half-inhibitory concentration (IC50) is 6 nM in assay [1] and 71 nM in assay [2].
In the case of `CC[C@H]1CN([C@H](CC)c2nc(C3CC3)no2)[C@H](CC)CN1c1nc2nncn2c2ccc(C#N)nc12` [Compound 120], the values for the IC50 in assay [1] and in assay [2] were 10 nM and 352 nM, respectively.
As to `CC[C@@H]1CN(c2nc3nncn3c3ccc(C#N)nc23)[C@@H](CC)CN1C(=O)Nc1ccc(C(F)(F)F)cc1` [Compound 95], the values for the half-inhibitory concentration (IC50) in assay [1] and in assay [2] were 58 nM and 303 nM, respectively.
For `Cc1ccccc1-n1cc(C2CCN(c3nc(=O)n(C)c4ccc(C#N)nc34)CC2)cn1` [Compound 12], the 50% inhibitory concentration (IC50) in assay [1] is 6600 nM; in assay [2] it was greater than 10000 nM.
On to `CC[C@H]1CN(C(CO)c2ccc(S(F)(F)(F)(F)F)cc2)[C@H](CC)CN1c1nc(=O)n(C)c2ccc(C#N)nc12` (some centres unmarked) [Compound 77], for which the concentration for half-maximal inhibition (IC50) came to 32 nM in assay [1] and 81 nM in assay [2].
Consider `N#Cc1ccc2c(n1)c(N1CCC3(CC1)CC(c1ccc(C(F)(F)F)cc1)=NO3)nc1nncn12` [Compound 53], for which the results for the IC50 in assay [1] and in assay [2] were 85 nM and 185 nM, respectively.
On the same counts, the results for `Cn1c(=O)nc(N2CCC3(CC2)COC(c2ccc(OC(F)(F)F)cc2)=N3)c2nc(Cl)ccc21` [Compound 37] are 17 nM and 475 nM.
On to `Cc1ccc2oc(C3CCN(c4nc(=O)n(C)c5ccc(C#N)nc45)CC3)nc2c1` [Compound 20], for which the figures for the 50% inhibitory concentration (IC50) in assay [1] and in assay [2] were 1160 nM and 1840 nM, respectively.
Taken in the same sequence, the figures for `Cn1c(=O)nc(N2CCCc3c(C#CC4CC4)cccc32)c2nc(C#N)ccc21` [Compound 42] were 3 nM and 311 nM.
Taken in the same sequence, the figures for `CC[C@H]1CN([C@H](c2ccc(S(F)(F)(F)(F)F)cc2)c2nc(C3CC3)cs2)[C@H](CC)CN1c1nc(=O)n(C)c2ccc(C#N)nc12` [Compound 98] were 10 nM and 40 nM.
Taken in the same sequence, the figures for `CC[C@H]1CN([C@H](CC)c2ccc(C(F)(F)F)cc2)[C@H](CC)CN1c1nc2nccn2c2ccc(C#N)nc12` [Compound 110] were 6 nM and 117 nM.
As to `CC[C@H]1CN(C(COC)c2ccc(S(F)(F)(F)(F)F)cc2)[C@H](CC)CN1c1nc(=O)n(C)c2ccc(C#N)nc12` (some centres unmarked) [Compound 78], the figures for the 50% inhibitory concentration (IC50) in assay [1] and in assay [2] were 19 nM and 41 nM, respectively.
Regarding `CC[C@@H]1CN2c3c(c(=O)n(C)c4ccc(C#N)nc34)OC[C@H]2CN1[C@@H](CC)c1ccc(C(F)(F)F)cc1` [Compound 107], the results for the IC50 in assay [1] and in assay [2] were 9 nM and 136 nM, respectively.
Turning to `Cn1c(=O)nc(N2CCC3(CCN(c4ccc(OC(F)(F)F)cc4)C3)CC2)c2nc(C#N)ccc21` [Compound 8], the IC50 in assay [1] amounted to 579 nM; in assay [2], 547 nM.
As for `CC[C@@H]1CN(c2nc3nncn3c3ccc(C#N)nc23)[C@@H](CC)CN1C(=O)c1ccc(C(F)(F)F)cc1` [Compound 84], the IC50 was determined as 9 nM in assay [4] and 1160 nM in assay [2].
Taken in the same sequence, the figures for `CC[C@H]1CN([C@H](CC)c2ccc(OC(F)(F)F)cc2)[C@H](CC)CN1c1nc2nncn2c2ccc(C#N)nc12` (stereo in doubt) [Compound 101] were 11 nM and 235 nM.
Taken in the same sequence, the figures for `CC[C@H]1CN([C@H]2CCCCc3cc(C(F)(F)F)ccc32)[C@H](CC)CN1c1nc(=O)n(C)c2ccc(C#N)nc12` [Compound 44] were 40 nM and 315 nM.
Taken in the same sequence, the figures for `CC[C@H]1CN([C@H](C)c2ccc(S(F)(F)(F)(F)F)cc2)[C@H](CC)CN1c1nc2nncn2c2ccc(C#N)nc12` (stereo in doubt) [Compound 89] were 10 nM and 116 nM.
Turning to `CC[C@H]1CN([C@H](CC)c2ccc(C(F)(F)F)cc2)[C@H](CC)CN1c1nc2nncn2c2ccc(C#N)nc12` [Compound 35], the IC50 in assay [1] was determined as 16 nM; in assay [2] it was 224 nM.
As to `CC[C@@H]1CN2c3c(c(=O)n(C)c4ccc(C#N)nc34)OC[C@@H]2CN1[C@@H](CC)c1ccc(SC(F)(F)F)cc1` [Compound 123], the 50% inhibitory concentration (IC50) in assay [4] turned out to be 78 nM; in assay [2] it was 798 nM.
As for `CC[C@@H]1CN(c2nc(=O)n(C)c3ccc(C#N)nc23)[C@@H](C)CN1[C@@H](CC)c1ccc(S(F)(F)(F)(F)F)cc1` (stereo in doubt) [Compound 60], the 50% inhibitory concentration (IC50) was found to be 83 nM in assay [4] and 28 nM in assay [2].
Take `CC[C@H]1CN([C@@H](CC)c2nc(C3CC3)no2)[C@H](CC)CN1c1nc2nncn2c2ccc(C#N)nc12` [Compound 119]: the IC50 in assay [1] is 3 nM; in assay [2], 21 nM.
`CC[C@@H]1CN(c2nc3nncn3c3ccc(C#N)nc23)[C@@H](C)CN1[C@@H](CC)c1ccc(SC(F)(F)F)cc1` (stereo in doubt) [Compound 66]: the half-maximal inhibitory concentration (IC50) turned out to be 4 nM in assay [4] and 53 nM in assay [2].

As a reminder, the IC50 is the concentration that inhibits the measured activity by half. Higher therefore signals weaker potency. For orientation: EC50 means the concentration giving half of the maximal effect. The low end stands for higher potency in that assay, the high end for lower potency in that assay.

The values above are taken from patent US20250223301A1, “KINASE INHIBITORS, PREPARATION METHODS AND USES THEREOF” (InventisBio Co., Ltd., priority 2022, published 2025).
